Assay results taken from patent publication US11389423B2, “Pharmaceutical composition, excipient for the composition and use of the composition” (priority 2018, dated 2022).

How the values were obtained:
[1] = test system: striatal levels of dopamine, DOPAC and AVM; assay: Determination of striatal dopamine, DOPAC and HVA levels (HPLC-ECD), MPTP model; assay type: in vivo, rats
Procedure: For the experiments with MPTP (neuroprotection), the animals were divided into the following experimental groups: • MPTP+placebo • MPTP+CBD-SINT 12 mg/kg • MPTP+CBD-SINT 36 mg/kg • MPTP+CBD-SINT 120 mg/kg • Sham+placebo • Naive
CBD-SINT and placebo were administered orally (gavage) for 18 days prior to the administration of the neurotoxin by stereotactic surgery, and for another 10 days after surgery. After the administration of the neurotoxin, the behavioral (locomotor activity) and biochemical (brain dopamine dosage) parameters were evaluated after 24 hours and after 10 days. The memory tests (Morris water maze) were performed daily from day 1 to day 10 after the administration of the neurotoxin (FIG. 13).
The rats were submitted to stereotactic surgery (stereotactic—David Kopf, model 957L) and received bilateral microinfusion of MPTP or 6-OHDA (different groups of rats) directly into the substantia nigra. For surgery, the following stereotaxic coordinates were used: anteroposterior: 5.0 mm from the bregma; mediolateral: ±2.1 mm from the midline and dorsoventral: −7.7 mm from the cranial vault (Paxinos and Watson, 1986). Then, 100 μg MPTP (diluted in 1 μL saline, with a flow of 0.33 μL/min) or 8 μg 6-OHDA (diluted in 2 μL saline with 0.2 μg/μL ascorbic acid, with a flow rate of 0.33 μL/min) were injected. The microinfusions were performed with the aid of a needle (30 gauge) connected to a polyethylene tube adapted to a […] micro-syringe (Hamilton, USA), which in turn, is fitted into an infusion pump (Harvard Apparatus, USA). After the end of the microinfusion, the needle was kept in place for another 2 minutes to prevent reflux of the neurotoxins. Then, the scalp was sutured, and the animals were removed from the stereotaxic. The rats were then placed in its original cages. The animals in the Sham groups were subject to the same surgical procedure, however without receiving the neurotoxins, being only introduced to the needle in the same stereotactic coordinates. The rats of naive groups were not subject to stereotactic surgery but were removed from the housing cage for handling for a few hours.
After the last set of experiments, the animals from the nigrostriatal treatment with MPTP and its respective controls were euthanized by decapitation. The levels of dopamine (DA) and its metabolites 3,4-dihydroxyphenylacetic acid (DOPAC) and homovanilic acid (HVA) were determined by high-performance liquid chromatography with an electrochemical detector (HPLC-ECD) according to Luo et al. (2009).
Briefly, the striatum was dissected, weighed, and homogenized in 0.2 M cold perchloric acid. The sample was then centrifuged twice at 14,000 g for 15 min at 4° C. […]

[2] = test system: male rabbits; assay: Electrocardiography; assay type: in vivo, New Zealand rabbits; conditions: male rabbits, 17, 51 and 170 mg/kg by gavage, one hour after treatment
Procedure: (§1) Male New Zealand rabbits (n=6 per group) were used for pharmacological safety tests. All tests were performed orally (route recommended for humans) and the investigated parameters were determined after a single administration of CBD-SINT. CBD-SINT doses were determined by allometric extrapolation from the average dose used in human patients (25 mg/kg).
(§2) The dose of 51 mg/kg was used as the intermediate dose, stipulating a higher and a lower dose. Three dose ranges were used according to the Guide for Conducting Non-Clinical Toxicology and Pharmacological Safety Studies Necessary for Drug Development (ANVISA, 2013; Version 1.2). Thus, the doses used were 17, 51 and 170 mg/kg of CBD-SINT.
a) Electrocardiography, wherein after a 6-h fasting, three doses of CBD (17, 51 and 170 mg/kg) were administered to different groups of male rabbits by gavage. Placebo was administered to the control group (1 mL/kg). One hour after treatments, all rabbits remained conscious in the supine position. Four electrodes (RL, RA, LL, and LA) were placed in the folds of both elbows and both knees. The V1 electrode was positioned in the 4th intercostal space to the right of the sternum. […] An acclimatization time of 5 min was waited, and then the cardiographic electric waves were recorded for 5 min. The electrocardiography was recorded with an ECG recorder (WinCardio, Micromed, Brasilia, Brazil).

[3] = test system: male rabbits; assay: Blood pressure measurement and heart rate; assay type: in vivo, New Zealand rabbits; conditions: for heart rate: anesthetized male rabbits
Procedure: as §1, §2
b) Blood pressure measurement, after a 6-h fasting, three doses of CBD-SINT (17, 51 and 170 mg/kg) were administered to different groups of male rabbits by gavage. Placebo was administered to the control group (1 mL/kg). 40 minutes after treatments all rabbits were anesthetized with 10 mg/kg diazepam intramuscularly combined with 115 mg/kg ketamine. Then, the animals received a bolus injection of heparin (50 IU) subcutaneously. Tracheostomy was performed to allow animals to breathe spontaneously. Then, the left carotid artery was isolated, cannulated, and connected to a pressure transducer coupled to a PowerLab recording system (Chart 5.0, ADI Instruments, Castle Hill, Australia). After 15 minutes for hemodynamic stabilization, systolic blood pressure (SBP), diastolic blood pressure (DBP) and mean arterial pressure (MAP) were recorded for another 20 min.

C=C(C)[C@@H]1CCC(C)=C[C@H]1c1c(O)cc(CCCCC)cc1O [CBD-SINT, Cannabidiol]
striatal levels of DOPAC ([1]; MPTP rats, 12 mg/kg orally): significantly increase | striatal levels of dopamine ([1]; MPTP rats, 12 mg/kg orally): significantly increase | levels of all markers after treatment vs naive and Sham groups ([1]; MPTP rats, 12, 36 and 120 mg/kg orally): statistically lower | striatal concentration of all evaluated markers (dopamine, DOPAC and AVM) ([1]; MPTP rats, 36 and 120 mg/kg orally): increased | PR, QRS or QT segments [2]: no significant changes | amplitudes of P, R or T waves vs placebo [2]: no changes | heart rate ([3]; 17 mg/kg oral): 285±18 bpm | heart rate ([3]; 51 mg/kg oral): 279±20 bpm | heart rate ([3]; 170 mg/kg oral): 275±17 bpm | blood pressure levels (systolic, diastolic, mean arterial) compared to the control group ([3]; anesthetized male rabbits, 17, 51 or 170 mg/kg oral): did not significantly change
